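Following 48 hours of exposure in 96-well plates, responses at five concentrations were used to interpolate endpoints linearly. Definition used: TGI = concentration required for complete inhibition of growth.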
How the values were obtained:
Test in all cases: NCI tumour cell line growth inhibition, 48 h
HT29 colon = tested on: HT29 colon
SNB-19 CNS = tested on: SNB-19 CNS
SF-539 CNS = tested on: SF-539 CNS
LXFL 529 NSCLC = tested on: LXFL 529 NSCLC
RXF 393 renal = tested on: RXF 393 renal
LOX IMVI melanoma = tested on: LOX IMVI melanoma
UACC-257 melanoma = tested on: UACC-257 melanoma
TK-10 renal = tested on: TK-10 renal
OVCAR-4 ovarian = tested on: OVCAR-4 ovarian
DMS 114 small cell lung = tested on: DMS 114 small cell lung
SF-295 CNS = tested on: SF-295 CNS
786-0 renal = tested on: 786-0 renal
UO-31 renal = tested on: UO-31 renal
SK-MEL-2 melanoma = tested on: SK-MEL-2 melanoma
HOP-92 NSCLC = tested on: HOP-92 NSCLC
HCT-116 colon = tested on: HCT-116 colon
HL-60(TB) leukemia = tested on: HL-60(TB) leukemia
M14 melanoma = tested on: M14 melanoma
SNB-78 CNS = tested on: SNB-78 CNS
NCI-H226 lung = tested on: NCI-H226 lung
NCI-H522 lung = tested on: NCI-H522 lung
OVCAR-5 ovarian = tested on: OVCAR-5 ovarian
SNB-75 CNS = tested on: SNB-75 CNS
NCI-H460 lung = tested on: NCI-H460 lung
KM20L2 colon = tested on: KM20L2 colon
SW-620 colon = tested on: SW-620 colon
M19-MEL melanoma = tested on: M19-MEL melanoma
SF-268 CNS = tested on: SF-268 CNS
SN12C renal = tested on: SN12C renal
MALME-3M melanoma = tested on: MALME-3M melanoma
OVCAR-8 ovarian = tested on: OVCAR-8 ovarian
HOP-62 NSCLC = tested on: HOP-62 NSCLC
U251 CNS = tested on: U251 CNS
ACHN renal = tested on: ACHN renal
COLO 205 colon = tested on: COLO 205 colon
DMS 273 small cell lung = tested on: DMS 273 small cell lung
NCI-H23 lung = tested on: NCI-H23 lung
KM12 colon = tested on: KM12 colon
DLD-1 colon = tested on: DLD-1 colon
SK-MEL-28 melanoma = tested on: SK-MEL-28 melanoma
A549 NSCLC = tested on: A549 NSCLC
CAKI-1 renal = tested on: CAKI-1 renal
EKVX NSCLC = tested on: EKVX NSCLC
HCC-2998 colon = tested on: HCC-2998 colon
OVCAR-3 ovarian = tested on: OVCAR-3 ovarian
HCT-15 colon = tested on: HCT-15 colon
IGROV1 ovarian = tested on: IGROV1 ovarian
UACC-62 melanoma = tested on: UACC-62 melanoma
SK-MEL-5 melanoma = tested on: SK-MEL-5 melanoma
K-562 leukemia = tested on: K-562 leukemia
XF 498 CNS = tested on: XF 498 CNS
A498 renal = tested on: A498 renal
CCRF-CEM leukemia = tested on: CCRF-CEM leukemia
MOLT-4 leukemia = tested on: MOLT-4 leukemia
RPMI-8226 leukemia = tested on: RPMI-8226 leukemia
SR leukemia = tested on: SR leukemia
SK-OV-3 ovarian = tested on: SK-OV-3 ovarian
HOP-18 NSCLC = tested on: HOP-18 NSCLC
RXF-631 renal = tested on: RXF-631 renal

Measured: TGI

Cc1cc(-c2ccccc2)cc2[n+]1CC=C2
94.8 µM: HOP-92 NSCLC
97.6 µM: RXF 393 renal
not listed: OVCAR-3 ovarian | HCT-15 colon | IGROV1 ovarian | UACC-62 melanoma | SK-MEL-5 melanoma | K-562 leukemia | XF 498 CNS | A498 renal | CCRF-CEM leukemia | MOLT-4 leukemia | RPMI-8226 leukemia | SR leukemia | SK-OV-3 ovarian | HOP-18 NSCLC | RXF-631 renal
> 100 µM: all other assays above

Cc1ccc(C(=O)NC(C)(C)C)cc1N=NN(C)C
not listed: RXF 393 renal | DMS 114 small cell lung | HL-60(TB) leukemia | NCI-H226 lung | OVCAR-5 ovarian | SNB-75 CNS | M19-MEL melanoma | MALME-3M melanoma | COLO 205 colon | K-562 leukemia | XF 498 CNS | A498 renal | CCRF-CEM leukemia | MOLT-4 leukemia | RPMI-8226 leukemia | SR leukemia | SK-OV-3 ovarian | HOP-18 NSCLC | RXF-631 renal
> 100 µM: all other assays above

COc1ccc([C@@H]2CC(=O)NCCCCNCCCN2)cc1
not listed: LOX IMVI melanoma | HCC-2998 colon | OVCAR-3 ovarian | RXF-631 renal
> 100 µM: all other assays above

CCOC(=O)/C=C/c1ccccn1
not listed: SNB-19 CNS | RXF 393 renal | KM20L2 colon | DMS 273 small cell lung | OVCAR-3 ovarian
> 100 µM: all other assays above

O=c1/c(=C/c2ccc3c(c2)OCO3)sc2nnc(-c3ccco3)n12
71.2 µM: SNB-75 CNS
not listed: HT29 colon | HOP-92 NSCLC | HCT-15 colon | SR leukemia | RXF-631 renal
> 100 µM: all other assays above

Cc1cc2c(c(N)c1C)C(=O)c1ccccc1C2=O
55.3 µM: CAKI-1 renal
50.4 µM: HCT-116 colon
86.6 µM: SF-295 CNS
56 µM: HOP-18 NSCLC
58.9 µM: HOP-92 NSCLC
79 µM: A498 renal
96.6 µM: U251 CNS
33.1 µM: UO-31 renal
31.5 µM: SF-539 CNS
49.2 µM: SK-OV-3 ovarian
62.7 µM: 786-0 renal
39.8 µM: SNB-75 CNS
40 µM: HOP-62 NSCLC
41.4 µM: OVCAR-4 ovarian
35.5 µM: UACC-62 melanoma
93.1 µM: TK-10 renal
not listed: NCI-H226 lung | NCI-H23 lung | SK-MEL-28 melanoma | EKVX NSCLC | OVCAR-3 ovarian | XF 498 CNS | RXF-631 renal
> 100 µM: all other assays above

Cc1cc(NCCCCCCNc2cc(C)nc3ccc(Cl)cc23)c2cc(Cl)ccc2n1
62.2 µM: UO-31 renal
32.8 µM: SK-MEL-5 melanoma
30.6 µM: RXF 393 renal | U251 CNS
32.3 µM: COLO 205 colon
34.7 µM: OVCAR-5 ovarian
29.8 µM: NCI-H460 lung
45.9 µM: A549 NSCLC
18.4 µM: K-562 leukemia
43.4 µM: M19-MEL melanoma
83.6 µM: CCRF-CEM leukemia
62.1 µM: TK-10 renal
42.1 µM: DMS 273 small cell lung
47.2 µM: SN12C renal
29.4 µM: SF-539 CNS
30.9 µM: KM12 colon
32.5 µM: SF-268 CNS
75.6 µM: MALME-3M melanoma
47.8 µM: HL-60(TB) leukemia
39.1 µM: OVCAR-8 ovarian
32.4 µM: KM20L2 colon
32 µM: OVCAR-3 ovarian | XF 498 CNS | 786-0 renal | SK-MEL-28 melanoma
33.5 µM: HT29 colon
34.8 µM: OVCAR-4 ovarian
33.1 µM: HCT-15 colon
66.8 µM: SNB-19 CNS
30.3 µM: HCC-2998 colon
31.2 µM: SF-295 CNS
28.7 µM: LOX IMVI melanoma
56.8 µM: SNB-78 CNS
35.5 µM: SNB-75 CNS
44.9 µM: UACC-257 melanoma
30.8 µM: HCT-116 colon | DLD-1 colon
30.7 µM: NCI-H522 lung | NCI-H23 lung
30.4 µM: EKVX NSCLC
46 µM: SK-MEL-2 melanoma
36 µM: DMS 114 small cell lung | UACC-62 melanoma
not listed: HOP-92 NSCLC | SW-620 colon | IGROV1 ovarian | HOP-18 NSCLC
> 100 µM: all other assays above

COC(=O)NN1C(=O)C(=P(c2ccccc2)(c2ccccc2)c2ccccc2)C(C(=O)OC)=C1C
79.5 µM: HOP-92 NSCLC
not listed: RXF 393 renal | UACC-257 melanoma | OVCAR-4 ovarian | 786-0 renal | HCT-116 colon | OVCAR-5 ovarian | HOP-62 NSCLC | KM12 colon | DLD-1 colon | A549 NSCLC | HCC-2998 colon | XF 498 CNS | SR leukemia
> 100 µM: all other assays above

Source: PubChem BioAssay (NCI)
